The values that follow are results of earlier work, collected in patent publication US20040037835A1, “Cytotoxic agents” (priority 1995, published 2004).

The structures appear in SMILES notation.

For one series, the system named is CHO cells. The following applies: in vitro co-culture of Walker cells and CHO cells.
Another series concerns the target E. coli nitroreductase (Escherichia coli, UniProt P38489).

E. coli nitroreductase, sequence (P38489 whole entry): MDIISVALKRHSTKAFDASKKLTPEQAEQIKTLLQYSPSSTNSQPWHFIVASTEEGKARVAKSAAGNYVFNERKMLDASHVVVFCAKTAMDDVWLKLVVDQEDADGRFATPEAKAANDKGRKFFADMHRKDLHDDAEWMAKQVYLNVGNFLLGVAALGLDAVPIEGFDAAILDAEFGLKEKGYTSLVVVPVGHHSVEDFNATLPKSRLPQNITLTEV

As for `NC(=O)c1cc(N2CC2)c([N+](=O)[O-])cc1[N+](=O)[O-]` [CB 1954, 5-(aziridin-1-yl)-2,4-dinitrobenzamide], the “bystander effect: kill of CHO cells that do not contain nitroreductase” value with CHO cells is “substantially killed”. Besides, the “substrate for the enzyme” value at E. coli nitroreductase is “poor substrate”.
